“Also recorded” adds a separate entry of the source.
How the values were obtained:
[1] = test system: CFA-induced inflammation; test: CFA-induced inflammation test; format: in vivo, ICR mice; settings: mice; for analgesia in hot plate test: 2 h after injection, 53 °C, doses 0.1, 0.5, 1 mg/kg; for oedema (paw diameter): intramuscular 0.1, 0.5, 1 mg/kg, measured 6-48 h
Method: Anti-inflammatory effect of two analogs of 6-substituted hypaphorine (6ND and 6ID) was tested in a model with subplantar administration of complete Freund’s adjuvant (CFA) in mice. CFA was injected once into the footpad to induce oedema in 24 h. Oedema was measured with an electronic calliper. Immediately after paw measurement, 6ND or 6ID was injected intramuscularly in doses 1, 0.5, and 0.1 mg/kg. Paws were measured at 6, 12, 24, and 48 h after administration of 6ND or 6ID. […] End points at 48 h of drug treatments at dose […] have been analyzed in terms of paw diameter normalized to the maximal oedemic levels in each group (Figure 6d).
Additionally, after 2 h following the drug injection, the analgesia test was conducted on the “hot plate” preheated to 53 °C. The time of withdrawal or licking of the affected paw was assessed for each animal.
The development of the inflammation and thermal hyperalgesia of the paw was induced by the injection of the oil/saline (1:1) CFA emulsion (Sigma-Aldrich, St. Louis, MO, lot # WH327536) into the subplantar surface of the hind paw of the ICR mice (20 µL/paw) 24 h before the measurement. Oedema was measured with an electronic calliper. Immediately after paw measurement, 6ND or 6ID were injected intramuscularly in doses: 1, 0.5, and 0.1 mg/kg. Paws were measured at 6, 12, 24, and 48 h after administration of 6ND or 6ID. After 2 h following the drug injection, the inflamed paw withdrawal or licking latencies to thermal stimulation were measured on a hot plate device (Hot Plate Analgesia Meter, Columbus Instruments) with a set temperature of 53 ± 0.1 °C and a cut-off time of 60 s.

[2] = test system: carrageenan-induced inflammation; test: Carrageenan-induced inflammation test; format: in vivo, ICR mice; settings: for oedema (paw diameter): 0.5 mg/kg (hypaphorine and 6ID also 1 mg/kg); for analgesia in von Frey test: versus vehicle
Method: Subplantar 1% carrageenan injections in a volume of 30 μL into the right hind paw were carried out to generate an inflammation model in mice. The paw volume was measured beforehand using an electronic calliper. The maximum effect of the introduction of carrageenan was observed after 3 h. […] The control group was treated with saline (0.9% NaCl). Two hours after the drug administration (total 3 h from carrageenan injection), the size of the pad of the right hind paw was measured, the von Frey test and paw pressure analgesimeter pain sensitivity assessment were performed.
Carrageenan inflammation was induced by injecting 30 μL of a 1% carrageenan suspension (Sigma-Aldrich, lot #SLBK3896V) into the subplantar surface of the ICR mice hind paw. The oedema degree of the carrageenan-induced paw was evaluated using an electronic calliper by the volume difference of the animal’s right hind paw after (3 h from carrageenan injection) and before being hurt by carrageenan.
[…] The control group was treated with saline (0.9% NaCl).
Antinociceptive testing was performed 2 h after the drug administration (3 h after carrageenan injection).
Nociceptive testing was performed by utilizing the von Frey test and Paw pressure test.
The animals were placed in 20 cm × 20 cm Plexiglas boxes equipped with a metallic mesh floor. Animals were allowed to habituate themselves to their environment for 15 min before the test. […] The paw sensitivity threshold was defined as the minimum force required to elicit a robust and immediate withdrawal reflex of the paw. Spontaneous movements associated with locomotion were not considered as a withdrawal response. Measurements were repeated 3 times and the final value was obtained by averaging the 3 measurements.
Mechanical hyperalgesia was measured as a paw withdrawal response to a gradual increase of mechanical pressure applied by the Rodent pinchers—analgesia meter (model BIO-RP-M; BioSeb, Vitrolles, France). The influence of stimulation on each hind paw was recorded three times. The maximum force applied to the paw was recorded as the grams (g) of force on the dynamometer.

COC(=O)C(Cc1c[nH]c2cc([N+](=O)[O-])ccc12)[N+](C)(C)C (stereo not shown) [Compound 5, methyl ester of 6-nitrohypaphorine]
analgesia in hot plate test ([1]; listed as 6ND): significant analgesia in hot plate test only at 0.1 mg/kg; also recorded: at a dose of 0.1 mg/kg has a pronounced analgesic effect, but higher doses did not show a difference from the control group
oedema (paw diameter) ([2]; mice, 2 h after drug, listed as 6ND): moderate anti-oedemic effect at a dose of 0.5 mg/kg
analgesia in von Frey test ([2]; mice, 2 h after drug): significant analgesia

C[N+](C)(C)[C@H](Cc1c[nH]c2ccccc12)C(=O)[O-] [Compound 16, L-hypaphorine, reference compound]
analgesia in hot plate test [1]: analgesia in hot plate test at all tested doses from 0.1 to 1 mg/kg
oedema reduction at 48 h end point, normalized to maximal oedema ([1]; dose 0.5, 48 h): markedly less effective reduction of oedema than 6ND and 6ID
oedema (paw diameter) ([1]; listed as Hypaphorine): demonstrated anti-oedemic properties
oedema (paw diameter) ([1]; listed as hypaphorine): significantly reduced edema in a concentration-dependent manner at doses 0.1–1 mg/kg
analgesia in paw pressure test (mechanical hyperalgesia) ([2]; mice, 2 h after drug): strong evidence of analgesia in algesimeter and von Frey tests
oedema (paw diameter) ([2]; mice, 2 h after drug): only a tendency to decrease oedema, not statistically significant
oedema (paw diameter) ([2]; mice, 2 h after drug, listed as synthetic hypaphorine): No significant effect
analgesia in von Frey test ([2]; mice, 2 h after drug): significant analgesia

COC(=O)[C@@H](Cc1c[nH]c2cc(I)ccc12)[N+](C)(C)C [Compound 1, (D)-6-iodohypaphorine methyl ester]
analgesia in hot plate test ([1]; listed as 6ID): effective in the hot plate test at 0.5 as well as at 1 mg/kg; also recorded: at doses 0.5 and 1 mg/kg showed significant analgesia
oedema (paw diameter) ([1]; listed as 6ID): significantly reduced by 6ID at 0.5 mg/kg starting from 12 h of treatment; also recorded: effective against oedema at doses 0.5 and 1 mg/kg
oedema (paw diameter) ([2]; mice, 2 h after drug, listed as 6ID): marked decrease in paw diameter at doses 0.5 and 1 mg/kg
analgesia in von Frey test ([2]; mice, 2 h after drug): significant analgesia
carrageenan-induced allodynia and hyperalgesia ([2]; rodents, doses 0.1 and 0.5 mg/kg): decreased carrageenan-induced allodynia and hyperalgesia
